Assay [1] concerns the target T1, Reg1_301-599 (amino acids 301-599 of human Regnase-1) phosphorylation by TBK1 (Homo sapiens, UniProt Q5D1E8).
T1 construct: made in house; host or cells: Expi293 cells
T1 sequence (Q5D1E8 301-599): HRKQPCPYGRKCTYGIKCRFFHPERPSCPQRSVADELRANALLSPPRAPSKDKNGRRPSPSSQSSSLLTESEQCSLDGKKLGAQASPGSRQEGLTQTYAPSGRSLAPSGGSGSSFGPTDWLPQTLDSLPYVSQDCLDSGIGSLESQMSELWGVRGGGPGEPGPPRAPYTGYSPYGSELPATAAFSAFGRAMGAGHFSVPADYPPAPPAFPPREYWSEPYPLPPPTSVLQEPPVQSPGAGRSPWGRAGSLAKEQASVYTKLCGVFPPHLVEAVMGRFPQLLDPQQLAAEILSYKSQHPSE
Briefly: Regnase-1 phosphorylation inhibition by compounds (AlphaScreen), TBK1, C-terminal Regnase-1. The assay is classed as biochemical. As to conditions: Table 13, read-out: Phosphorylation inhibition Reg1_301-599, 50% inhibition concentration (TBK1). The procedure: (§1) Among the full-length human Regnase-1 sequence, the 1st to 546th amino acid sequence was prepared and made into a construct having a FLAG tag on the N-terminal side and a biotin ligase BirA recognition sequence on the C-terminal side (herein, a Regnase-1 lacking the C-terminal domain of Regnase-1 (amino acids 547 to 599 in the case of SEQ ID NO: 2) is referred to as “ΔCTD_Reg1”. “ΔCTD_Reg1” is different from “Regnase-1ΔCTD”, which is a C-terminal domain deletion variant resulting from a frameshift mutation caused by a 1 bp deletion at codon 517, as prepared in Example 13). In addition, the sequence from amino acids 301 to 599 of the full-length human Regnase-1 sequence was designated as C-terminal Regnase-1, and a construct having a FLAG tag on the N-terminal side and a recognition sequence for biotin ligase BirA on the C-terminal side was prepared (Reg1_301-599). The above-mentioned Regnase-1 was expressed in mammalian Expi293 cells, purified with FLAG M2 agarose, and isolated by gel filtration chromatography. When biotinylation was required, methods of nonpatent documents (BMC biotechnology, 2008,8,41; and Protein Science, 1999,8,921-929) were used.
(§2) Using Kinase assay buffer III (manufactured by SignalChem) supplemented with 2 mM DTT, 100 μM sodium vanadate, and 2 mM manganese chloride, kinase (IKKβ (manufactured by SignalChem) or TBK1 (manufactured by SignalChem)) and Regnase-1 were reacted in the presence of 10 μM ATP at room temperature for 2 hours to perform a phosphorylation reaction.
(§3) Phosphorylated Regnase-1 was detected by the AlphaScreen system. After each of the above-mentioned phosphorylated Regnase-1 antibodies was added and reacted at room temperature for one hour, anti-FLAG AlphaLISA Acceptor Beads (manufactured by PerkinElmer) and Protein A AlphaScreen Donor Beads (manufactured by PerkinElmer) were added, and EnVision (manufactured by PerkinElmer) was used to measure the excited luminescence. As a result, phosphorylated Regnase-1 produced by the phosphorylation reaction by kinase was specifically detected, and signals were confirmed to be enhanced in a manner dependent on Regnase-1 and kinase concentrations (FIG. 24).
(§4) After mixing 2 nM of the above-mentioned Regnase-1 and the compound, phosphorylated Regnase-1 produced by the phosphorylation reaction was detected by the AlphaScreen system. As the results, the inhibition rate was calculated from the signals obtained when adding the compound at each concentration, by defining the signal obtained with Regnase-1 alone to be 100% inhibition rate, and the signal obtained when the same amount of solvent (DMSO) is added in place of the compound as 0% inhibition rate. The 50% inhibition concentration (μM) was calculated from the obtained dose response curve (Table 11).
For orientation: Alpha assays give light when donor and acceptor beads are brought close together.

Assay [2] deals with T2, ΔCTD_Reg1 (amino acids 1 to 546 of human Regnase-1) phosphorylation by TBK1 (Homo sapiens, UniProt Q5D1E8).
T2 construct: made in house; host or cells: Expi293 cells
T2 sequence (Q5D1E8 1-546): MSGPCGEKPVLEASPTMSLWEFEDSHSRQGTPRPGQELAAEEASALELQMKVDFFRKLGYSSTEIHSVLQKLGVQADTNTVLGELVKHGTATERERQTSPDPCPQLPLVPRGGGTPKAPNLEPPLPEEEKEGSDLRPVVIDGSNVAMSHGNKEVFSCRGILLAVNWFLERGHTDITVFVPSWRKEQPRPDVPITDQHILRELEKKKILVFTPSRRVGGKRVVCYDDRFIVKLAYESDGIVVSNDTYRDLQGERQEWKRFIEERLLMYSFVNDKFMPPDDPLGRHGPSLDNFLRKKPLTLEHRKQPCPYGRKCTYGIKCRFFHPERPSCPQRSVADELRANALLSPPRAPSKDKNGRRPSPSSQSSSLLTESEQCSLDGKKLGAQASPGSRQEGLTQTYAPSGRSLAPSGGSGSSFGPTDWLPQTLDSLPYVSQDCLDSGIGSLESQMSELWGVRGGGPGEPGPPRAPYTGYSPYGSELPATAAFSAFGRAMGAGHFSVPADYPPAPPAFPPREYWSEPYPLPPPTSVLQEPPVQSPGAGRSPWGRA
Briefly: Regnase-1 phosphorylation inhibition by compounds (AlphaScreen), TBK1, CTD-deficient Regnase-1. The assay is classed as biochemical.
From the text: The full-length sequence of human Regnase-1 (UniProt ID: Q5D1E8) was used to prepare a construct having a FLAG tag on the N-terminal side and a recognition sequence for biotin ligase BirA on the C-terminal side (FL_Reg1) as a target protein. The above-mentioned Regnase-1 was expressed in mammalian Expi293 cells, purified with FLAG M2 agarose, and isolated by gel filtration chromatography. When biotinylation was required, methods from nonpatent documents (BMC biotechnology, 2008,8,41; and Protein Science, 1999,8,921-929) were used.
as §1, §2, §3, §4

Where [3] appears, read: Table 13, phosphorylation by TBK1, read-out: Phosphorylation inhibition ΔCTD_Reg1, 50% inhibition concentration (TBK1).

Like-named read-outs stand apart in the source and are kept apart here. Residues, ends and D or L forms follow the SMILES beside them.

Regarding `CC(C)[C@@H]1NC(=O)[C@H](CCCCN)NC(=O)[C@H](Cc2ccc(O)cc2)NC(=O)[C@H](Cc2c[nH]c3ccccc23)NC(=O)[C@H](CO)NC(=O)[C@H]([C@@H](C)O)NC(=O)[C@H](C)N(C)C(=O)C[C@@H](C(=O)N2CCCC2)NC(=O)[C@H](CCC(N)=O)NC(=O)CNC(=O)[C@H](Cc2c[nH]c3ccccc23)NC(=O)[C@H](CC(N)=O)NC1=O` [PP1] (HELM PEPTIDE1{[meA].T.S.W.Y.K.V.N.W.G.Q.D.[C1CCN([*:1])C1]}$PEPTIDE1,PEPTIDE1,1:R1-12:R3$$$V2.0), the IC50 was greater than 62100 nM in assay [1]; greater than 62100 nM in assay [2] (Table 11, 2 nM Regnase-1, AlphaScreen, read-out: 50% inhibition concentration, Regnase-1 phosphorylation, ΔCTD_Reg1, TBK1); greater than 62100 nM in assay [2] (setting [3]).

As to `CC[C@H](C)[C@@H]1NC(=O)[C@H](CO)NC(=O)[C@H](CCCNC(=N)N)NC(=O)[C@H](Cc2ccc(O)cc2)NC(=O)[C@H](Cc2ccc(O)cc2)NC(=O)[C@H](Cc2c[nH]c3ccccc23)NC(=O)[C@H](CO)NC(=O)[C@H](CCC(N)=O)NC(=O)[C@H](Cc2ccc(O)cc2)NC(=O)[C@H](CC(N)=O)NC(=O)[C@H](C)N(C)C(=O)C[C@@H](C(=O)N2CCCC2)NC(=O)[C@H](Cc2c[nH]c3ccccc23)NC1=O` [PP10] (HELM PEPTIDE1{[meA].N.Y.Q.S.W.Y.Y.R.S.I.W.D.[C1CCN([*:1])C1]}$PEPTIDE1,PEPTIDE1,1:R1-13:R3$$$V2.0), the figures for the IC50 in assay [1] and in assay [2] (setting [3]) were 400 nM and 200 nM, respectively.

In the case of `CC[C@H](C)[C@@H]1NC(=O)[C@H](CCCCN)NC(=O)[C@H](Cc2ccc(O)cc2)NC(=O)[C@H](Cc2ccccc2)NC(=O)[C@H](C(C)C)NC(=O)[C@H](C)N(C)C(=O)C[C@@H](C(=O)N2CCCC2)NC(=O)[C@H](Cc2c[nH]c3ccccc23)NC(=O)[C@H](CC(N)=O)NC(=O)[C@H](Cc2ccc(O)cc2)NC(=O)[C@H](Cc2c[nH]c3ccccc23)NC1=O` [PP19] (HELM PEPTIDE1{[meA].V.F.Y.K.I.W.Y.N.W.D.[C1CCN([*:1])C1]}$PEPTIDE1,PEPTIDE1,1:R1-11:R3$$$V2.0), the IC50 in assay [1] is 5800 nM; in assay [2] (setting [3]) it was 4600 nM.

With `CC[C@H](C)[C@@H]1NC(=O)[C@H](CC(=O)O)NC(=O)[C@H](C)N(C)C(=O)C[C@@H](C(=O)N2CCCC2)NC(=O)[C@H](Cc2c[nH]c3ccccc23)NC(=O)[C@H](CC(=O)O)NC(=O)[C@H](Cc2c[nH]c3ccccc23)NC(=O)[C@H](Cc2ccc(O)cc2)NC(=O)[C@H](CC(=O)O)NC(=O)[C@H](Cc2ccccc2)NC(=O)[C@H](Cc2c[nH]c3ccccc23)NC1=O` [PP17] (HELM PEPTIDE1{[meA].D.I.W.F.D.Y.W.D.W.D.[C1CCN([*:1])C1]}$PEPTIDE1,PEPTIDE1,1:R1-11:R3$$$V2.0), the figures for the IC50 in assay [1] and in assay [2] (setting [3]) were less than 60 nM and 300 nM, respectively.

The values are drawn from patent US20250018014A1, “METHOD FOR TREATING AND/OR PREVENTING REGNASE-1-RELATED DISEASE” (OSAKA UNIVERSITY, priority 2018, published 2025).
